US20110237607A1, “SUBSTITUTED PURINYL-PYRAZOL DERIVATIVES AND THEIR USE AS POTASSIUM CHANNEL MODULATORS” (NEUROSEARCH A/S, priority 2008, published 2011)

Molecular target: T1, hSK3 channels (Homo sapiens, UniProt Q9UGI6)
T1 construct: expressed in transfected cells; host or cells: HEK293
Test: Whole-cell patch-clamp recording of SK3 current in HEK293 cells expressing hSK3 channels
Format: cell-based
Procedure: The ionic current through small-conductance Ca^2+-activated K^+ channels (SK channels, subtype 3) is recorded using the whole-cell configuration of the patch-clamp technique in a classic patch-clamp set-up using HEK293 tissue culture cells expressing hSK3 channels as described in e.g. WO 2006/100212.
The SC100 value determined is defined as the Stimulating Concentration required for increasing the baseline current by 100%. The below SC100 values are an indication of the SK3 activating properties of the compounds of the invention.

| SMILES | SC100 (Stimulating Concentration required for increasing the baseline current by 100%) |
| --- | --- |
| Cc1ccn(-c2nc(NC3Cc4ccccc4C3)c3ncn(C)c3n2)n1 [Compound 5.2, Indan-2-yl-[9-methyl-2-(3-methyl-pyrazol-1-yl)-9H-purin-6-yl]-amine] | 0.10 µM |
| Cc1cc(C)n(-c2nc(NC3Cc4ccccc4C3)c3ncn(C)c3n2)n1 [Compound 5.1, [2-(3,5-Dimethyl-pyrazol-1-yl)-9-methyl-9H-purin-6-yl]-indan-2-yl-amine] | 0.04 µM |
